The text below walks through data of ChEMBL document CHEMBL1201862, “PubChem BioAssay data set” (2004).

Among the test systems are M19-MEL; SNB-78; DMS-273; SF-268; NCI-H23; KM12; IGROV-1; HCT-116; CCRF-CEM; RPMI-8226; LOX IMVI; OVCAR-5; M14; NCI-H460; SNB-75; BT-549; SK-OV-3; NCI/ADR-RES.
Common to all, as to experiment: DTP human tumour cell line panel, 48 h

As a reminder, the GI50 is the concentration that inhibits growth by half.

Each structure is given as a SMILES string.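 Five concentrations, 48 hours, 96-well plates. GI50 marks 50% less growth.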 The source made the active and inactive calls. No stated cut-off is given here; in the data, active = GI50 up to about 1.1 µM and inactive = higher.

Consider `COc1ccc(C(=O)NNC(=O)c2nsc3ccccc23)cc1`, for which the GI50 in the experiment on M19-MEL, with SNB-78, with DMS-273, in the experiment on SF-268, with NCI-H23 and with KM12 was > 100 µM (inactive) each time. The GI50 with IGROV-1 is > 100 µM (inactive); in the experiment with HCT-116 it was 83.6 µM (inactive); with CCRF-CEM, 24.7 µM (inactive); in the experiment on RPMI-8226, 52.5 µM (inactive); in the experiment with LOX IMVI, 58.2 µM (inactive); with OVCAR-5, > 100 µM (inactive). The GI50 in the experiment on M14 is 85.7 µM (inactive).

Consider `CCC(=O)NC(Nc1cccc(F)c1)(C(F)(F)F)C(F)(F)F`, for which the GI50 in the experiment with NCI-H460, in the experiment with SF-268, in the experiment on NCI-H23, in the experiment with KM12, in the experiment on IGROV-1 and in the experiment on HCT-116 was > 100 µM (inactive) each time. Also, the GI50 with CCRF-CEM is 60 µM (inactive); with SNB-75 it was > 100 µM (inactive); with RPMI-8226, > 100 µM (inactive); in the experiment on LOX IMVI, > 100 µM (inactive); in the experiment with BT-549, > 100 µM (inactive); in the experiment with OVCAR-5 it was > 100 µM (inactive). Besides, the GI50 with M14, in the experiment on SK-OV-3 and in the experiment on NCI/ADR-RES was > 100 µM (inactive) each time.

For the compound `C[C@H]1S[C@@H](c2ccc(Cl)cc2Cl)N(NC(=O)c2ccncc2)C1=O`, the GI50 is 58.2 µM (inactive) in the experiment with NCI-H460; 50.4 µM (inactive) in the experiment with NCI-H23; > 100 µM (inactive) in the experiment on KM12; > 100 µM (inactive) in the experiment with IGROV-1; 34.5 µM (inactive) in the experiment on HCT-116; 11.3 µM (inactive) in the experiment with CCRF-CEM. For the same compound, the GI50 in the experiment on SNB-75 is 80.5 µM (inactive); in the experiment with RPMI-8226, 40.2 µM (inactive); in the experiment on BT-549 it was 39.4 µM (inactive); in the experiment on OVCAR-5, 95.9 µM (inactive); in the experiment on M14, 61.8 µM (inactive); in the experiment with SK-OV-3 it was > 100 µM (inactive). The GI50 with NCI/ADR-RES was 21.7 µM (inactive).

Consider `Nc1ccccc1C(=O)N/N=C1\C(=O)Nc2ccccc21`, for which the GI50 is > 100 µM (inactive) with NCI-H460; 88.7 µM (inactive) in the experiment on SF-268; 56.2 µM (inactive) in the experiment on NCI-H23; 88.5 µM (inactive) in the experiment with KM12; 64 µM (inactive) with IGROV-1; > 100 µM (inactive) in the experiment with HCT-116. Also, the GI50 is > 100 µM (inactive) in the experiment on CCRF-CEM; 23.9 µM (inactive) with SNB-75; 30.8 µM (inactive) with BT-549; > 100 µM (inactive) with OVCAR-5; > 100 µM (inactive) in the experiment with M14; > 100 µM (inactive) with SK-OV-3. Besides, the GI50 with NCI/ADR-RES was > 100 µM (inactive).

Take `Cc1n[nH]c(CC#N)n1`: the GI50 in the experiment with SF-268, in the experiment on NCI-H23, in the experiment on KM12, in the experiment with IGROV-1, in the experiment on HCT-116 and with CCRF-CEM was > 100 µM (inactive) in each case. The GI50 with SNB-75, in the experiment on RPMI-8226, in the experiment on LOX IMVI, in the experiment with BT-549, in the experiment on OVCAR-5 and in the experiment on M14 was > 100 µM (inactive) throughout. Also, the GI50 in the experiment with SK-OV-3 and in the experiment with NCI/ADR-RES was > 100 µM (inactive) each time.

`COC(=O)C(F)C(Br)C(=O)OC` (centres undefined): the GI50 with NCI-H460 was 18.9 µM (inactive); with SF-268, 7.71 µM (inactive); in the experiment on NCI-H23, 6.03 µM (inactive); in the experiment with KM12 it was 20.3 µM (inactive); in the experiment with IGROV-1, 2.69 µM (inactive); with HCT-116, 2.74 µM (inactive). Further, the GI50 with CCRF-CEM is 0.684 µM (active); with SNB-75, 12.3 µM (inactive); in the experiment on RPMI-8226 it was 1.41 µM (inactive); in the experiment on LOX IMVI it was 6.41 µM (inactive); in the experiment with BT-549 it was 16.2 µM (inactive); with OVCAR-5, 16.4 µM (inactive). The values for the GI50 in the experiment on M14, in the experiment with SK-OV-3 and in the experiment with NCI/ADR-RES were 5.79 µM (inactive), 18.5 µM (inactive) and 2.94 µM (inactive), respectively.

As for `COc1cc(/C=C2\N=C(c3ccccc3)N(C3Nc4cc5c(cc4S3)NC(N3C(=O)/C(=C/c4cc(OC)c(OC)c(OC)c4)N=C3c3ccccc3)S5)C2=O)cc(OC)c1OC` (centres undefined), the GI50 is 13.7 µM (inactive) in the experiment with NCI-H460; > 100 µM (inactive) in the experiment with SF-268; 94.6 µM (inactive) with NCI-H23; 89.3 µM (inactive) with KM12; > 100 µM (inactive) in the experiment with IGROV-1; 77.6 µM (inactive) in the experiment with HCT-116. Further, the GI50 with SNB-75 was > 100 µM (inactive); in the experiment with RPMI-8226 it was 28.8 µM (inactive); in the experiment with LOX IMVI it was 74.1 µM (inactive); in the experiment with BT-549, 97.1 µM (inactive); in the experiment with OVCAR-5 it was > 100 µM (inactive); with M14, > 100 µM (inactive). In the experiment with NCI/ADR-RES, the GI50 is 38.5 µM (inactive).

For `COc1cc2cc(C(=O)N3CC(CCl)c4ccc(NO)cc43)[nH]c2c(OC)c1OC` (centres undefined), the GI50 in the experiment with NCI-H460 was 0.0446 µM (active); in the experiment on SF-268 it was 0.101 µM (active); with NCI-H23 it was 0.0693 µM (active); in the experiment with KM12, 0.155 µM (active); with IGROV-1, 0.0968 µM (active); in the experiment on HCT-116, 0.253 µM (active). Further, the GI50 in the experiment on CCRF-CEM is 0.137 µM (active); in the experiment on SNB-75, 0.177 µM (active); in the experiment on RPMI-8226, 0.117 µM (active); with LOX IMVI it was 0.164 µM (active); in the experiment on BT-549, 0.253 µM (active); with OVCAR-5, 0.15 µM (active). Moreover, the GI50 in the experiment with M14 is 0.188 µM (active); in the experiment on SK-OV-3, 0.284 µM (active); with NCI/ADR-RES, 0.0723 µM (active).

On to `O=C1Nc2ccc(Cl)cc2/C1=C\c1c(Cl)nc2sccn12`, for which the GI50 with NCI-H460 was 1.96 µM (inactive); in the experiment with SF-268, > 100 µM (inactive); in the experiment with NCI-H23, 59 µM (inactive); in the experiment with KM12 it was 2.25 µM (inactive); in the experiment with IGROV-1 it was 8.51 µM (inactive); with HCT-116, 4.23 µM (inactive). In addition, the GI50 in the experiment with CCRF-CEM is 10.6 µM (inactive); with SNB-75 it was > 100 µM (inactive); with RPMI-8226, 0.0514 µM (active); with LOX IMVI, 7.48 µM (inactive); in the experiment with BT-549 it was 7.57 µM (inactive); in the experiment on OVCAR-5 it was 14.7 µM (inactive). For the same compound, the GI50 with M14 is 34.2 µM (inactive); with SK-OV-3 it was 36.8 µM (inactive); in the experiment on NCI/ADR-RES, 3.1 µM (inactive).

Regarding `COP(=O)(OC)C(N)Cc1c[nH]c2ccccc12` (centres undefined), the GI50 in the experiment with NCI-H460, with NCI-H23, in the experiment with IGROV-1, with HCT-116, in the experiment on SNB-75 and in the experiment with RPMI-8226 was > 100 µM (inactive) throughout. The GI50 with LOX IMVI, with OVCAR-5, with M14, in the experiment on SK-OV-3 and in the experiment with NCI/ADR-RES was > 100 µM (inactive) each time.

Consider `Nc1ccn(C2OC(CO[PH](=O)OC3C(CO[PH](=O)OC4C(CO[PH](=O)OC5C(CO[PH](=O)OC6C(CO[PH](=O)OC7C(CO[PH](=O)OC8C(CO[PH](=O)OC9C(CO[PH](=O)OC%10C(CO[PH](=O)OC%11C(CO)OC(n%12ccc(N)nc%12=O)C%11(F)F)OC(n%11ccc(N)nc%11=O)C%10(F)F)OC(n%10ccc(N)nc%10=O)C9(F)F)OC(n9ccc(N)nc9=O)C8(F)F)OC(n8ccc(N)nc8=O)C7(F)F)OC(n7ccc(N)nc7=O)C6(F)F)OC(n6ccc(N)nc6=O)C5(F)F)OC(n5ccc(N)nc5=O)C4(F)F)OC(n4ccc(N)nc4=O)C3(F)F)C(O)C2(F)F)c(=O)n1` (centres undefined), for which the GI50 in the experiment with NCI-H460 was 0.0208 µM (active); in the experiment on SF-268 it was 0.0285 µM (active); with NCI-H23 it was 0.0423 µM (active); in the experiment with KM12, 5.38 µM (inactive); in the experiment on IGROV-1 it was 0.912 µM (active); in the experiment with HCT-116, 0.0134 µM (active). The GI50 with CCRF-CEM was 0.0172 µM (active); in the experiment with SNB-75 it was 0.0254 µM (active); in the experiment on RPMI-8226, 0.0582 µM (active); with LOX IMVI it was 0.0418 µM (active); with BT-549, 0.0661 µM (active); in the experiment with OVCAR-5, 0.111 µM (active). In addition, the figures for the GI50 in the experiment with SK-OV-3 and in the experiment with NCI/ADR-RES were 0.979 µM (active) and 0.051 µM (active), respectively.

In the case of `O=C1CSC(/C=C/c2ccccc2)N1c1nc2cc3sc(N4C(=O)CSC4/C=C/c4ccccc4)nc3cc2s1` (centres undefined), the GI50 with NCI-H460 is 3.33 µM (inactive); in the experiment with SF-268, > 100 µM (inactive); with NCI-H23 it was > 48.3 µM (inactive); in the experiment with KM12, 48.9 µM (inactive); with IGROV-1, > 62.1 µM (inactive); with HCT-116, 27.7 µM (inactive). The GI50 in the experiment with CCRF-CEM was 3.53 µM (inactive); in the experiment on SNB-75, 73.8 µM (inactive); in the experiment with RPMI-8226 it was 22 µM (inactive); with LOX IMVI it was > 41.3 µM (inactive); with BT-549 it was > 75.9 µM (inactive); with OVCAR-5 it was > 65.6 µM (inactive). Further, the GI50 in the experiment on M14 is > 100 µM (inactive); in the experiment on SK-OV-3, > 100 µM (inactive); in the experiment on NCI/ADR-RES, > 87.1 µM (inactive).

Regarding `COc1ccccc1N1C(=O)/C(=C\c2cc(OC)c(OC)c(OC)c2)SC1c1ccccc1` (centres undefined), the GI50 in the experiment on NCI-H460 is 51.5 µM (inactive); in the experiment with SF-268, 31.6 µM (inactive); in the experiment on NCI-H23, 31.4 µM (inactive); in the experiment on KM12, 21.1 µM (inactive); in the experiment on HCT-116 it was 18.5 µM (inactive); in the experiment on CCRF-CEM it was 6.76 µM (inactive). The GI50 with RPMI-8226 is 3.11 µM (inactive); with LOX IMVI, 26.9 µM (inactive); in the experiment with BT-549 it was 84.9 µM (inactive); in the experiment on OVCAR-5, > 100 µM (inactive); with M14 it was 16.5 µM (inactive); in the experiment on SK-OV-3 it was 21.4 µM (inactive). In addition, the GI50 in the experiment on NCI/ADR-RES is 43 µM (inactive).
